{
  "source": "ChEMBL document CHEMBL5528027",
  "about": "“Target identification, and optimization of dioxygenated amide derivatives as potent antibacterial agents with FabH inhibitory activity” (Eur J Med Chem, 2024)",
  "key": {"Escherichia coli": {"tested_on": "Escherichia coli", "assay": "Antibacterial activity against Escherichia coli assessed as reduction in bacterial growth measured after 24 hrs by two-fold serial dilution method", "type": "functional"}, "Pseudomonas aeruginosa": {"tested_on": "Pseudomonas aeruginosa", "assay": "Antibacterial activity against Pseudomonas aeruginosa assessed as reduction in bacterial growth measured after 24 hrs by two-fold serial dilution method", "type": "functional"}, "Bacillus subtilis": {"tested_on": "Bacillus subtilis", "assay": "Antibacterial activity against Bacillus subtilis assessed as reduction in bacterial growth measured after 24 hrs by two-fold serial dilution method", "type": "functional"}, "Staphylococcus aureus [1]": {"tested_on": "Staphylococcus aureus", "assay": "Antibacterial activity against Staphylococcus aureus assessed as reduction in bacterial growth measured after 24 hrs by two-fold serial dilution method", "type": "functional"}, "Klebsiella pneumoniae": {"tested_on": "Klebsiella pneumoniae", "assay": "Antibacterial activity against Klebsiella pneumoniae assessed as reduction in bacterial growth measured after 24 hrs by two-fold serial dilution method", "type": "functional"}, "Streptococcus pneumoniae": {"tested_on": "Streptococcus pneumoniae", "assay": "Antibacterial activity against Streptococcus pneumoniae assessed as reduction in bacterial growth measured after 24 hrs by two-fold serial dilution method", "type": "functional"}, "[2]": {"molecular_target": "T1, Beta-ketoacyl-[acyl-carrier-protein] synthase III (Escherichia coli K-12, UniProt P0A6R0)", "T1 sequence (P0A6R0 whole entry)": "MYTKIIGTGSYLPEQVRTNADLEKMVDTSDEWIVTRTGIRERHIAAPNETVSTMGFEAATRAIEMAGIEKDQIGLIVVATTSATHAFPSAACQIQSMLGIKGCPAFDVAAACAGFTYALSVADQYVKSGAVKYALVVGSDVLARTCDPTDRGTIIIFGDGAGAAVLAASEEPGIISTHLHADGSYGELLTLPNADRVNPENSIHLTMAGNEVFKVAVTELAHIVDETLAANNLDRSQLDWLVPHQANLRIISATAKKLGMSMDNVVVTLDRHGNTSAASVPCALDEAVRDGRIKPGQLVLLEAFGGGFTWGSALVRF", "assay": "Inhibition of Escherichia coli FabH"}, "Erythrocyte": {"tested_on": "Erythrocyte", "assay": "Hemolytic activity in human erythrocytes assessed as hemolysis by spectrophotometric analysis", "type": "toxicity, cell-based"}, "[3]": {"assay": "Cytotoxicity against mouse NIH3T3 cells incubated for 24 hrs by MTT analysis", "type": "toxicity, cell-based"}, "[4]": {"molecular_target": "T1, Beta-ketoacyl-[acyl-carrier-protein] synthase III", "assay": "Binding affinity to Escherichia coli FabH assessed as dissociation constant by Isothermal titration calorimetry method"}, "[5]": {"molecular_target": "T2, Beta-ketoacyl-[acyl-carrier-protein] synthase III (Escherichia coli K-12) (UniProt P0A6R0)", "T2 sequence (whole entry)": "T1 sequence (P0A6R0 whole entry)", "assay": "Binding affinity to Escherichia coli FabH assessed as change in enthalpy by Isothermal titration calorimetry method"}, "[6]": {"molecular_target": "T2, Beta-ketoacyl-[acyl-carrier-protein] synthase III (Escherichia coli K-12)", "assay": "Binding affinity to Escherichia coli FabH assessed as change in entropy by Isothermal titration calorimetry method"}, "[7]": {"molecular_target": "T2, Beta-ketoacyl-[acyl-carrier-protein] synthase III (Escherichia coli K-12)", "assay": "Binding affinity to Escherichia coli FabH assessed as change in Gibbs free energy by Isothermal titration calorimetry method"}, "Staphylococcus aureus [8]": {"tested_on": "Staphylococcus aureus", "assay": "In vivo antibacterial activity against Staphylococcus aureus infected in Sprague-Dawley rat skin infection model assessed in shrink of wound area measured after 3 days", "type": "functional, organism-based", "details": "time 3.0 day"}, "Staphylococcus aureus [9]": {"tested_on": "Staphylococcus aureus", "assay": "In vivo antibacterial activity against Staphylococcus aureus infected in Sprague-Dawley rat skin infection model assessed in reduction of wound exudation measured after 3 days", "type": "functional, organism-based", "details": "time 3.0 day"}, "Staphylococcus aureus [10]": {"tested_on": "Staphylococcus aureus", "assay": "In vivo antibacterial activity against Staphylococcus aureus infected in Sprague-Dawley rat skin infection model assessed in reduction of wound pus measured after 3 days", "type": "functional, organism-based", "details": "time 3.0 day"}, "Staphylococcus aureus [11]": {"tested_on": "Staphylococcus aureus", "assay": "In vivo antibacterial activity against Staphylococcus aureus infected in Sprague-Dawley rat skin infection model assessed in reduction of wound size measured after 6 days", "type": "functional, organism-based", "details": "time 6.0 day"}, "Staphylococcus aureus [12]": {"tested_on": "Staphylococcus aureus", "assay": "In vivo antibacterial activity against Staphylococcus aureus infected in Sprague-Dawley rat skin infection model assessed in wound healing measured after 10 days (reference value: 70.8%)", "type": "functional", "details": "time 10 day"}, "Staphylococcus aureus [13]": {"tested_on": "Staphylococcus aureus", "assay": "In vivo antibacterial activity against Staphylococcus aureus infected in Sprague-Dawley rat skin infection model assessed in decrease in number of inflammatory cells within wound tissue measured after 3 to 10 days by H and E staining based analysis", "type": "functional, organism-based", "details": "time 3-10 day"}},
  "note": "The source made the active and inactive calls. No cut-off for these calls is given here.",
  "data": [
    {"smiles": "COC(=O)c1c[nH]c2cc(NC(=O)c3ccc4c(c3)OCCCO4)ccc12", "values": [
      {"measurement": "MIC", "setting": "Escherichia coli", "result": 1.56, "unit": "µg/mL"},
      {"measurement": "MIC", "setting": "Pseudomonas aeruginosa", "result": 1.56, "unit": "µg/mL"},
      {"measurement": "MIC", "setting": "Bacillus subtilis", "result": 3.13, "unit": "µg/mL"},
      {"measurement": "MIC", "setting": "Staphylococcus aureus [1]", "result": 3.13, "unit": "µg/mL"},
      {"measurement": "MIC", "setting": "Klebsiella pneumoniae", "result": 1.56, "unit": "µg/mL"},
      {"measurement": "MIC", "setting": "Streptococcus pneumoniae", "result": 6.25, "unit": "µg/mL"},
      {"measurement": "IC50", "setting": "[2]", "result": 2, "unit": "µM"},
      {"measurement": "HC30", "setting": "Erythrocyte", "result": "> 10", "unit": "µg/mL"},
      {"measurement": "IC50 at 24 h", "setting": "[3]", "result": 142, "unit": "µM"},
      {"measurement": "Kd", "setting": "[4]", "result": 21.5, "unit": "µM"},
      {"measurement": "deltaH", "setting": "[5]", "result": -80, "unit": "kcal/mol"},
      {"measurement": "TdeltaS", "setting": "[6]", "result": -73.6, "unit": "kcal/mol"},
      {"measurement": "deltaG", "setting": "[7]", "result": -6.4, "unit": "kcal/mol"},
      {"measurement": "Activity", "setting": "Staphylococcus aureus [8]", "result": "Active"},
      {"measurement": "Activity", "setting": "Staphylococcus aureus [9]", "result": "Active"},
      {"measurement": "Activity", "setting": "Staphylococcus aureus [10]", "result": "Active"},
      {"measurement": "Activity", "setting": "Staphylococcus aureus [11]", "result": "Active"},
      {"measurement": "Activity", "setting": "Staphylococcus aureus [12]", "result": 94, "unit": "%"},
      {"measurement": "Activity", "setting": "Staphylococcus aureus [13]", "result": "Active"}
    ]}
  ]
}
